Assay results as given in ChEMBL document CHEMBL5370533 (Eur J Med Chem, 2023).

What was measured:
[1] = biological target: T1, Receptor-type tyrosine-protein kinase FLT3 (Homo sapiens, UniProt P36888); test: Inhibition of human FLT3 using EAIYAAPFAKKK and [gamma-33P]-ATP as substrate pretreated for 20 mins followed by [gamma-33P]-ATP addition and measured after 120 mins in presence of 10 uM ATP by radiometric Hot-SpotSM Kinase assay
T1 sequence (P36888 whole entry): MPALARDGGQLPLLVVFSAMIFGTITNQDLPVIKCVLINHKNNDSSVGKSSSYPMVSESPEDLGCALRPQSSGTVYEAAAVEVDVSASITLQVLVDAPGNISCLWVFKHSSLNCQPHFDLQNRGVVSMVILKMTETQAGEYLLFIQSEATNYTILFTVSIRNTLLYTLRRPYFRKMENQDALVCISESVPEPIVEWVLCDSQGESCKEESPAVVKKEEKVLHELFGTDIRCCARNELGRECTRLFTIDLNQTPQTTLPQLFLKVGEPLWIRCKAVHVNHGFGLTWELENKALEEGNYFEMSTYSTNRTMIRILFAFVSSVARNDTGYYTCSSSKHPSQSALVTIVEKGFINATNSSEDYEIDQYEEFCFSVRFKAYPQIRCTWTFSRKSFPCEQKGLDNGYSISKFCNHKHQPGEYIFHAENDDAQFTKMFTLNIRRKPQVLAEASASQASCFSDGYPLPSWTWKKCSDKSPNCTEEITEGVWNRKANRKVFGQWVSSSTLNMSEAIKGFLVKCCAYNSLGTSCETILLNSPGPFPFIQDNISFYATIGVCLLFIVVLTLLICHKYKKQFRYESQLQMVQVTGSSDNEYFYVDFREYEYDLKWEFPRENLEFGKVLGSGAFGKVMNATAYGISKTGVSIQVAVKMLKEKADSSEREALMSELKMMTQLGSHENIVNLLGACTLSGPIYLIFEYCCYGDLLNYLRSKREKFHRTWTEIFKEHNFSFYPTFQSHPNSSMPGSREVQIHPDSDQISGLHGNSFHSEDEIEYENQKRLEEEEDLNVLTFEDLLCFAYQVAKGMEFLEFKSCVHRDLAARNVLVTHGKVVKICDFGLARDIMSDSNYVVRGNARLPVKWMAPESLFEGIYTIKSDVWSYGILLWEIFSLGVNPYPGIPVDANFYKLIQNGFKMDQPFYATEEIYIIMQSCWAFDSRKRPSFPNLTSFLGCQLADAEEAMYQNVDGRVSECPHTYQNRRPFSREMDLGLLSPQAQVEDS

[2] = biological target: T2, Cyclin-dependent kinase 2 (Homo sapiens, UniProt P24941); test: Inhibition of human CDK2 assessed as enzyme activity at 0.123 uM pretreated for 20 mins followed by [gamma-33P]-ATP addition and measured after 120 mins in presence of 10 uM ATP by radiometric Hot-SpotSM Kinase assay; set-up: scale not given: the % may be the effect or the level left; conditions: time 140.0 min
[3] = biological target: T3, Cyclin-dependent kinase 6 (Homo sapiens, UniProt Q00534); test: Inhibition of human CDK6 assessed as enzyme activity at 0.123 uM pretreated for 20 mins followed by [gamma-33P]-ATP addition and measured after 120 mins in presence of 10 uM ATP by radiometric Hot-SpotSM Kinase assay; set-up: scale not given: the % may be the effect or the level left; conditions: time 140.0 min
[4] = tested on: MV4-11; test: Antiproliferative activity against human MV4-11 cells harboring FLT3 ITD mutant assessed as inhibition of cell growth incubated for 72 hrs by CellTiter-Glo luminescent assay; type: functional, cell-based; conditions: MV4-11, 72 h
[5] = biological target: T2, Cyclin-dependent kinase 2; test: Inhibition of human CDK2 pretreated for 20 mins followed by [gamma-33P]-ATP addition and measured after 120 mins in presence of 10 uM ATP by radiometric Hot-SpotSM Kinase assay
[6] = biological target: T3, Cyclin-dependent kinase 6; test: Inhibition of human CDK6 pretreated for 20 mins followed by [gamma-33P]-ATP addition and measured after 120 mins in presence of 10 uM ATP by radiometric Hot-SpotSM Kinase assay
[7] = biological target: Receptor-type tyrosine-protein kinase FLT3 (Homo sapiens) (UniProt P36888); test: Inhibition of human FLT3 assessed as enzyme activity using EAIYAAPFAKKK and [gamma-33P]-ATP as substrate at 0.123 uM pretreated for 20 mins followed by [gamma-33P]-ATP addition and measured after 120 mins in presence of 10 uM ATP by radiometric Hot-SpotSM Kinase assay; set-up: scale not given: the % may be the effect or the level left; conditions: time 140.0 min
[8] = tested on: HL-60; test: Antiproliferative activity against human HL-60 cells expressing low level wild type FLT3 assessed as inhibition of cell growth; type: functional, cell-based
[9] = Cytotoxicity against human PBMC cells assessed as inhibition of cell growth; type: toxicity, cell-based
[10] = tested on: K562; test: Antiproliferative activity against human K562 cells deficit of oncogenic FLT3 assessed as inhibition of cell growth; type: functional, cell-based
[11] = tested on: MOLM-13; test: Antiproliferative activity against human MOLM-13 cells harboring FLT3 ITD mutant assessed as inhibition of cell growth; type: functional, cell-based
[12] = Cytotoxicity against mouse BaF3 cells assessed as inhibition of cell growth incubated for 72 hrs; type: toxicity, cell-based
[13] = tested on: BaF3; test: cells; type: functional, cell-based; conditions: Mus musculus, BaF3, 72 h
Description: Antiproliferative activity against mouse BaF3 cells harboring FLT3 ITD mutant assessed as inhibition of cell growth incubated for 72 hrs

[14] = tested on: BaF3; test: cells; type: functional, cell-based; conditions: Mus musculus, BaF3, 72 h; remark: listed apart in the source
Description: Antiproliferative activity against mouse BaF3 cells harboring FLT3 ITD/D835V mutant assessed as inhibition of cell growth incubated for 72 hrs

[15] = tested on: BaF3; test: cells; type: functional, cell-based; conditions: Mus musculus, BaF3, 72 h; remark: listed apart in the source
Description: Antiproliferative activity against mouse BaF3 cells harboring FLT3 ITD/F691L mutant assessed as inhibition of cell growth incubated for 72 hrs

[16] = tested on: BaF3; test: cells; type: functional, cell-based; conditions: Mus musculus, BaF3, 72 h; remark: listed apart in the source
Description: Antiproliferative activity against mouse BaF3 cells harboring FLT3 ITD/N676D mutant assessed as inhibition of cell growth incubated for 72 hrs

[17] = tested on: BaF3; test: Antiproliferative activity against mouse BaF3 cells harboring FLT3 D835V mutant assessed as inhibition of cell growth incubated for 72 hrs; type: functional, cell-based; conditions: BaF3, 72 h
[18] = tested on: MV4-11; test: animal or person; type: functional, Homo sapiens; conditions: Mus musculus, MV4-11, 336 h, route po, time 2 weeks
Description: Antitumor activity against human MV4-11 cells xenografted in nu/nu mouse assessed as inhibition of tumor growth at 50 mg/kg, po qd for 2 weeks by vernier caliper analysis

[19] = Toxicity against nu/nu mouse xenografted with human MV4-11 cells assessed as decrease in body weight at 50 mg/kg, po qd for 2 weeks; type: organism-based; conditions: in vivo, 336 h
[20] = Toxicity against nu/nu mouse xenografted with human MV4-11 cells assessed as animal's mortality at 50 mg/kg, po qd for 2 days; type: organism-based; conditions: in vivo, 48 h, time 2 day
[21] = tested on: U-937; test: Antiproliferative activity against human U-937 cells expressing low level wild type FLT3 assessed as inhibition of cell growth; type: functional, cell-based
[22] = tested on: THP-1; test: Antiproliferative activity against human THP-1 cells expressing wild type FLT3 assessed as inhibition of cell growth; type: functional, cell-based

T3 sequence (Q00534 whole entry): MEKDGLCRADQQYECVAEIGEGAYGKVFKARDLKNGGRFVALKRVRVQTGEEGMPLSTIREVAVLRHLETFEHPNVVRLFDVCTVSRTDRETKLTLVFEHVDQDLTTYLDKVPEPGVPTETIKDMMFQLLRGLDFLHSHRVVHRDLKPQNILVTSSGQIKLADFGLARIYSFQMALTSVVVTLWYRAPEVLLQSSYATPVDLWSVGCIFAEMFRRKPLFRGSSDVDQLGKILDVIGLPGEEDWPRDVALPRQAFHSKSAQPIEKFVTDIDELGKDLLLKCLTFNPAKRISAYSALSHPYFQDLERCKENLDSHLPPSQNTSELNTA

Row | SMILES | IC50 [1] [nM] | Activity [2] [%] | Activity [3] [%] | IC50 [4] [nM] | further results
1 | CN1CCN(Cc2ccc(NC(=O)c3n[nH]cc3Nc3cc(C4CCCC4)ncn3)cc2)CC1 | 19.4 | 78.8 | 88.9 | 200 | 
2 | O=C(Nc1ccc(N2CCNCC2)cc1)c1n[nH]cc1Nc1cc(NC2CCCC2)ncn1 | 21.2 | 69.5 | 72.9 | 100 | 
3 | CN1CCN(Cc2ccc(NC(=O)c3n[nH]cc3Nc3ncnc4[nH]ccc34)cc2)CC1 |  |  |  | 7 | IC50 [8]: 770 nM; IC50 [9]: 126 nM; IC50 [10]: 795 nM; IC50 [11]: 5.4 nM; IC50 at 72 h [12]: 155 nM; IC50 [13]: 38 nM; IC50 [14]: 8 nM; IC50 [15]: 56 nM; IC50 [16]: 73 nM; IC50 [17]: 39 nM; inhibition in vivo at 50 mg/kg [18]: 94.6%; Activity [19]: Toxic; Activity [20]: Toxic
4 | O=C(Nc1ccc(N2CCNCC2)cc1)c1n[nH]cc1Nc1cc(-c2ccccc2)ncn1 | 45.2 | 89.3 | 101 |  | 
5 | CO[C@@H]1[C@H](N(C)C(=O)c2ccccc2)C[C@H]2O[C@]1(C)n1c3ccccc3c3c4c(c5c6ccccc6n2c5c31)C(=O)NC4 [MIDOSTAURIN] |  |  |  |  | IC50 at 72 h [12]: 320 nM; IC50 [17]: 4 nM
6 | Cc1cc(Oc2ccccc2)nc(Nc2c[nH]nc2C(=O)Nc2ccc(N3CCNCC3)cc2)n1 |  | 78.3 | 91.5 |  | Activity [7]: 71.7%
7 | O=C(Nc1ccc(N2CCOCC2)cc1)c1n[nH]cc1Nc1cc(C2CCCC2)ncn1 | 58.3 | 83.3 | 93.3 |  | 
8 | O=C(Nc1ccc(N2CCNCC2)cc1)c1n[nH]cc1Nc1cc(C2=CCOCC2)ncn1 | 25.1 | 76.5 | 86.4 |  | 
9 | CN1CCN(Cc2ccc(NC(=O)c3n[nH]cc3Nc3ccncn3)cc2)CC1 | 7.29 |  |  |  | IC50 [5]: 23 nM; IC50 [6]: 14.3 nM
10 | O=C(Nc1ccc(CN2CCOCC2)cc1)c1n[nH]cc1Nc1cc(C2CCCC2)ncn1 | 29.7 | 71.4 | 92.6 | 210 | 

Continued, in another order:

Row | IC50 [1] [nM] | Activity [2] [%] | Activity [3] [%] | IC50 [4] [nM] | SMILES | further results
11 | 11.3 | 51 | 51.3 | 90 | O=C(Nc1ccc(N2CCNCC2)cc1)c1n[nH]cc1Nc1cc(OCC2CCCC2)ncn1 | 
12 | 7.84 |  |  | 110 | O=C(Nc1ccc(N2CCNCC2)cc1)c1n[nH]cc1Nc1cc(OC2CCCC2)ncn1 | IC50 [5]: 135 nM; IC50 [6]: 158 nM
13 | 19.2 | 53.1 | 58.4 | 130 | O=C(Nc1ccc(N2CCNCC2)cc1)c1n[nH]cc1Nc1cc(OC2CCCCC2)ncn1 | 
14 | 28.9 | 84.8 | 94.3 |  | O=C(Nc1ccc(N2CCNCC2)cc1)c1n[nH]cc1Nc1cc(C2CCCCCC2)ncn1 | 
15 | 28.8 | 54.6 | 58.1 |  | O=C(Nc1ccc(N2CCNCC2)cc1)c1n[nH]cc1Nc1cc(OC2CCCCCC2)ncn1 | 
16 | 11.2 | 82.3 | 88.8 |  | Cc1nc(Nc2c[nH]nc2C(=O)Nc2ccc(N3CCNCC3)cc2)cc(Oc2ccccc2)n1 | 
17 |  | 88.6 | 88.4 |  | Cc1cnc(Nc2c[nH]nc2C(=O)Nc2ccc(N3CCNCC3)cc2)nc1Oc1ccccc1 | Activity [7]: 83%
18 | 41.3 | 83.5 | 87.5 |  | O=C(Nc1ccc(N2CCNCC2)cc1)c1n[nH]cc1Nc1cc(-c2ccoc2)ncn1 | 
19 |  |  |  | 5.3 | CC(C)(C)c1cc(NC(=O)Nc2ccc(-c3cn4c(n3)sc3cc(OCCN5CCOCC5)ccc34)cc2)no1 [QUIZARTINIB] | IC50 [21]: 251 nM; IC50 [8]: 771 nM; IC50 [9]: 1260 nM; IC50 [10]: 291 nM; IC50 [11]: 15.2 nM; IC50 [22]: 201 nM; IC50 at 72 h [12]: > 10000 nM; IC50 [13]: 1 nM; IC50 [14]: 93 nM; IC50 [17]: 100 nM
20 | 15.4 | 79.3 | 86.3 | 100 | O=C(Nc1ccc(N2CCNCC2)cc1)c1n[nH]cc1Nc1cc(C2CCCC2)ncn1 | 
21 | 8.42 |  |  | 80 | O=C(Nc1ccc(N2CCNCC2)cc1)c1n[nH]cc1Nc1cc(C2CC2)ncn1 | IC50 [5]: 193 nM; IC50 [6]: 125 nM
